Measurements from ChEMBL document CHEMBL1138394, “A novel butyrolactone derivative inhibited apoptosis and depressed integrin beta4 expression in vascular endothelial cells” (2007).
Calls of active or inactive are those of the source. The rule behind the calls is not given here.

What was measured:
Endothelial cell [1] = assay: Prevention of serum deprivation-induced reduction of vascular endothelial cell viability after 24 hrs by MTT assay; format: functional, cell-based; conditions: Homo sapiens
Endothelial cell [2] = assay: Prevention of FGF2 deprivation-induced reduction of vascular endothelial cell viability after 24 hrs by MTT assay; format: functional, cell-based; conditions: Homo sapiens
Endothelial cell [3] = assay: Inhibition of DNA fragmentation in vascular endothelial cells at 40 ug/ml after 24 hrs; format: functional, cell-based; conditions: Homo sapiens
[4] = Inhibition of serum deprivation-induced vascular endothelial cell apoptosis assessed as apoptotic cell proportion at 40 ug/ml after 24 hrs by TUNEL assay; format: functional, Homo sapiens; parameters: scale not given: the % may be the effect or the level left
[5] = Inhibition of FGF2 deprivation-induced vascular endothelial cell apoptosis assessed as apoptotic cell proportion at 40 ug/ml after 24 hrs by TUNEL assay; format: functional, Homo sapiens; parameters: scale not given: the % may be the effect or the level left
[6] = Inhibition of serum deprivation-induced integrin beta-4 expression in vascular endothelial cells at 40 ug/ml after 24 hrs relative to control; format: functional, Homo sapiens, Endothelial cell
[7] = Inhibition of FGF2 deprivation-induced integrin beta-4 expression in vascular endothelial cells at 40 ug/ml after 24 hrs relative to control; format: functional, Homo sapiens, Endothelial cell
[8] = Inhibition of serum deprivation-induced ROS level in vascular endothelial cells at 30 ug/ml after 24 hrs relative to control; format: functional, Homo sapiens, Endothelial cell
[9] = Inhibition of FGF2 deprivation-induced ROS level in vascular endothelial cells at 30 ug/ml after 24 hrs relative to control; format: functional, Homo sapiens, Endothelial cell
Endothelial cell [10] = assay: Prevention of serum deprivation-induced reduction of vascular endothelial cell viability after 48 hrs by MTT assay; format: functional, cell-based; conditions: Homo sapiens
Endothelial cell [11] = assay: Prevention of FGF2 deprivation-induced reduction of vascular endothelial cell viability after 48 hrs by MTT assay; format: functional, cell-based; conditions: Homo sapiens

O=C1OC(COc2ccccc2[N+](=O)[O-])CC1Cc1ccccc1 (stereo unspecified)
Activity (Endothelial cell [1]): Dose-dependent effect
Activity (Endothelial cell [2]): Dose-dependent effect
Activity (Endothelial cell [3]): Active
Activity [4]: 9.89%
Activity [5]: 9.89%
Activity [6]: 33.8
Activity [7]: 33.8
Activity [8]: 7.95
Activity [9]: 7.95
Activity (Endothelial cell [10]): Dose-dependent effect
Activity (Endothelial cell [11]): Dose-dependent effect
